Tested on: NIDDM KK-A^y male mice
Assay: Activity on serum glucose and insulin levels in NIDDM KK-A^y male mice
Type: in vivo
Settings: percent reduction relative to pre-treatment values, 10 mg/kg orally, twice a day, 5 consecutive days, blood sampled 90 minutes after the last dose
Source text: Representative compounds were chosen and evaluated for activity on serum glucose and insulin levels in non-insulin dependent diabetic mellitus (NIDDM) KK-A^y male mice. Post-treatment data for each group were transferred to a percentage of pretreatment values and unpaired Student's t test was used for comparison between vehicle and test substance treated groups. […] The results are presented in Table XXI and in FIGS. 19 and 20.
Activity in NIDDM KK-A^y male mice. Non-insulin dependent diabetic mellitus male mice, weighing 50+/−5 g (9-10 weeks of age) were used. […] The test compounds 105, 115, and 155, and the positive control compound troglitazone were suspended in a 1% carboxymethylcellulose preparation and were given orally at a dose of 10 mg/kg, twice a day, for 5 consecutive days. Blood sampling was performed before the first dose and then 90 minutes after the last dose. Serum glucose and insulin levels were measured.

Cc1c(C)c2c(c(C)c1O)CCC(C)(COc1ccc(CC3SC(=O)NC3=O)cc1)O2 (centres unmarked) [Troglitazone, troglitazone]
Serum Glucose (%): 35% | Serum Insulin (%): 15%
